{
  "source": "patent US12168677B2",
  "about": "“Proteins for the treatment of epithelial barrier function disorders” (Genevive, Inc., priority 2017, dated 2024)",
  "key": {"[1]": {"test_system": "HCT8 enterocytes and HT29-MTX goblet cells", "assay": "Co-culture trans-epithelial electrical resistance (TEER) assay with heat killed E. coli challenge", "type": "cell-based, human", "conditions": "staurosporine 100 nM, negative control", "description": "Assays were performed as described below in trans-well plates where co-cultures of multiple cell types were performed utilizing a permeable membrane to separate cells. In the apical (top) chamber, human colonic epithelial cells, consisting of a mixture of enterocytes and goblet cells, were cultured until cells obtained tight junction formation and barrier function capacity as assessed by measurement of trans-epithelial electrical resistance (TEER). In the basolateral chamber, monocytes were cultured separately. Epithelial cells were primed with inflammatory cytokines. The assays measured the effect of a therapeutic protein, i.e., SG-15, on epithelial barrier function, wound healing, and production of cytokines. Cell culture. The HCT8 human enterocyte cell line (ATCC Cat. No. CCL-244) was maintained in RPMI-1640 medium supplemented with 10% fetal bovine serum, 100 IU/ml penicillin, 100 μg/ml streptomycin, 10 μg/ml gentamicin and 0.25 μg/ml amphotericin (cRPMI). […] Epithelial cells were trypsinized from culture flasks and viable cells determined by trypan blue counting. […] Trans-epithelial electrical resistance (TEER) readings were measured after the IFN-γ treatment and were used as the pre-treatment TEER values. […]"}, "[2]": {"test_system": "HCT8 enterocytes and HT29-MTX goblet cells", "assay": "Epithelial cell wound healing (Oris Cell Migration assay)", "type": "cell-based, human", "conditions": "SG protein 1 μg/ml, EGF 30 ng/ml, staurosporine 100 nM; 48 hours", "from_the_text": "HCT8 enterocytes and HT29-MTX goblet cells were used in wound healing studies. The 96 well Oris Cell Migration assay containing plugs preventing cell attachment in the center of each well was used according to the manufacturer's instructions (Platypus Technologies, Madison, WI). The migration assay plates were warmed to room temperature prior to use and plugs were removed from 100% confluence wells prior to cell addition. The HCT8 enterocyte and HT29-MTX goblet cell lines were used at a 9:1 ratio with a total of 5×10^4 total cells added per well (4.5×10^4 HCT8 cells and 0.5×10^4 HT29-MTX cells). […] Plugs were then removed from all control and sample wells. Control wells included cells treated with the diluent vehicle as the blank, 30 ng/ml epidermal growth factor (EGF) as the positive control, and 100 nM staurosporine as the negative control, all diluted in cRPMI. Sample wells contained SG-15 protein at a concentration of 1 μg/ml diluted in cRPMI. 100% and 0% wells were cultured in cRPMI. […] Prior to staining for viable cells, plugs were removed from the 0% wells. Treatment media was removed and cells were washed in PBS containing 0.9 mM CaCl2) and 0.5 mM MgCl2. […] Samples were normalized between 100% and 0% samples and values expressed as a percent growth."}, "[3]": {"set-up": "species or system mice", "conditions": "mouse, in vivo, ip"}, "DSS treated mice [4]": {"test_system": "DSS treated mice", "assay": "DSS model: colon length", "type": "in vivo, C57BL/6 mice", "conditions": "50 nmoles/kg i.p. b.i.d.; 2.5% DSS 6 days", "description": "Eight-week old C57BL/6 mice were housed 5 animals were cage and given food and water ad libitum for 7 days. Following the 7-day acclimation period, treatments were initiated concurrently with addition of 2.5% DSS to the drinking water. […] The mice were treated with 2.5% dextran sodium sulfate (DSS) in their drinking water for 6 days. Treatments were continued with SG-15 or […]-GLP2 twice a day (b.i.d.) in the morning and evening (every 8 and 16 hr) with i.p. injections at 50 nmoles/kg. Fresh 2.5% DSS drinking water was prepared every 2 days. Colon length was measured in mice included in the DSS model described in Example 1E. […] The graph in FIG. 8 represents data pooled from the 2 individual experiments (n=20)."}, "DSS treated mice [5]": {"test_system": "DSS treated mice", "assay": "DSS model: colon weight to length ratio", "type": "in vivo, C57BL/6 mice", "conditions": "Gly2-GLP2 i.p. b.i.d.; 2.5% DSS 6 days", "description": "Eight-week old C57BL/6 mice were housed 5 animals were cage and given food and water ad libitum for 7 days. Following the 7-day acclimation period, treatments were initiated concurrently with addition of 2.5% DSS to the drinking water. […] The mice were treated with 2.5% dextran sodium sulfate (DSS) in their drinking water for 6 days. Treatments were continued with SG-15 or […]-GLP2 twice a day (b.i.d.) in the morning and evening (every 8 and 16 hr) with i.p. injections at 50 nmoles/kg. Fresh 2.5% DSS drinking water was prepared every 2 days. Colon length and weight were measured in mice included in the DSS model study described in Example 1E. […] Accordingly, the ratio of tissue weight to length can be used as a readout of DSS induced tissue damage. SG-15 administration to DSS treated mice (Example 1E) reduced the colon weight to length ratio elicited by DSS (DSS=3.9 mg/mm, DSS+SG-15=3.5 mg/mm; p=0.13). […] However, no difference was observed between treated with SG-15 as compared to treatment with […]GLP2. The graph in FIG. 9 represents data pooled from the 2 individual experiments (n=20)."}},
  "note": "“Also recorded” adds a separate entry of the source.",
  "data": [
    {"compound": "CN[C@@H]1C[C@H]2O[C@@](C)([C@@H]1OC)n1c3ccccc3c3c4c(c5c6ccccc6n2c5c31)C(=O)NC4", "note": "[staurosporine, reference compound]", "values": [
      {"measurement": "Effect of control compound on TEER", "setting": "[1]", "result": "drastic decrease in TEER"},
      {"measurement": "Wound healing, percent growth", "setting": "[2]", "result": "suppressing cell proliferation"}
    ]},
    {"compound": "epidermal growth factor (NSDSECPLSHDGYCLHDGVCMYIEALDKYACNCVVGYIGERCQYRDLKWWELR; Epidermal growth factor; UniProt P01133 971-1023, looked up) [EGF, positive control in wound healing assay, reference compound]", "values": [
      {"measurement": "Wound healing, percent growth", "setting": "[2]", "result": "increasing proliferation"}
    ]},
    {"compound": "fluorescently labeled bovine serum albumin: tracer protein for tracking studies following intraperitoneal injection", "values": [
      {"measurement": "Time at which protein reached the colon after i.p. delivery", "setting": "[3]", "result": 6, "unit": "h"}
    ]},
    {"compound": "Gly2-GLP2: a stable analog of glucagon-like peptide 2 (GLP2), positive control in DSS model", "values": [
      {"measurement": "Colon length / colon shortening elicited by DSS treatment", "setting": "DSS treated mice [4]", "result": "significant improvement in colon length"},
      {"measurement": "Colon length, Gly2-GLP2 compared with SG protein", "setting": "DSS treated mice [4]", "result": "significant improvement over SG-16; also recorded: significant improvement over SG-17; also recorded: significant improvement over SG-18"},
      {"measurement": "Colon weight to length ratio, effect of positive control in DSS mice", "setting": "DSS treated mice [5]", "result": "significant reduction in colon weight to length ratio"}
    ]}
  ]
}
